SMILES strings stand for the structures. Calls of active or inactive are those of the source. The rule behind the calls is not given here.

The test system of this assay is Drosophila. The experiment in a line: Short term memory enhancement in human Abeta42 transgenic Drosophila alzheimers disease model dosed for 6 days by pavlovian olfactory learning assay after 8 days. It is filed as functional, organism-based.
For the molecule `COC(=O)C1=CO[C@@H](O[C@@H]2O[C@H](CO)[C@@H](O)[C@H](O)[C@H]2O)[C@@H]2C(CO)=CC[C@H]12`, the outcome was Active.
To `COC(=O)C1=CO[C@@H](O[C@@H]2O[C@H](COC(=O)/C=C/c3ccc(O)cc3)[C@@H](O)[C@H](O)[C@H]2O)[C@@H]2C(CO)=CC[C@H]12` belongs “Active”; to `COC(=O)C1=CO[C@@H](O[C@@H]2O[C@H](COC(=O)/C=C/c3cc(OC)c(O)c(OC)c3)[C@@H](O)[C@H](O)[C@H]2O)[C@@H]2C(CO)=CC[C@H]12`, “Active”; to `COc1cc(/C=C/C(=O)OC[C@H]2O[C@@H](OC[C@H]3C(=O)OC[C@@H]4C(CO)=CC[C@@H]43)[C@H](O)[C@@H](O)[C@@H]2O)cc(OC)c1O`, “Active”.
To `COC(=O)C1=CO[C@@H](O[C@@H]2O[C@H](CO)[C@@H](O)[C@H](O)[C@H]2O)[C@@H]2C(COC(=O)CCC(=O)O)=CC[C@H]12` belongs “Active”; to `COc1cc(/C=C/C(=O)OC[C@H]2O[C@@H](OCC3=CC[C@H]4[C@@H]3COC(=O)[C@@H]4CO)[C@H](O)[C@@H](O)[C@@H]2O)cc(OC)c1O`, “Active”; to `COC(=O)C1=CO[C@@H](O[C@@H]2O[C@H](CO)[C@@H](O)[C@H](O)[C@H]2O)[C@@H]2C(COC(C)=O)=CC[C@H]12`, “Active”.
In the case of `COC(=O)C1=CO[C@@H](O[C@@H]2O[C@H](COC(C)=O)[C@@H](O)[C@H](O)[C@H]2O)[C@@H]2C(CO)=CC[C@H]12`, the result was Active.

For the origin of these results see ChEMBL document CHEMBL1154206, “Bioactive iridoid glucosides from the fruit of Gardenia jasminoides” (J Nat Prod, 2009).
